Measured values: patent US20220380383A1, “NEUROPROTECTIVE PDI MODULATING SMALL MOLECULES AND METHODS OF USE THEREOF” (THE TRUSTEES OF COLUMBIA UNIVERSITY IN THE CITY OF NEW YORK, priority 2018, published 2022)

What was measured:
Adrenergic α2A = Adrenergic α2A (Homo sapiens, UniProt P08913); experiment: Off-target panel, Adrenergic α2A; type: binding; settings: Conc. 3 μM
LCK = target: T1, LCK (Homo sapiens, UniProt P06239); experiment: Safety47 panel kinase LCK; type: biochemical; settings: Inhibitor mode; 3 μM
T1 construct: CEREP (CRO, Safety47 panel)
T1 sequence (P06239 whole entry): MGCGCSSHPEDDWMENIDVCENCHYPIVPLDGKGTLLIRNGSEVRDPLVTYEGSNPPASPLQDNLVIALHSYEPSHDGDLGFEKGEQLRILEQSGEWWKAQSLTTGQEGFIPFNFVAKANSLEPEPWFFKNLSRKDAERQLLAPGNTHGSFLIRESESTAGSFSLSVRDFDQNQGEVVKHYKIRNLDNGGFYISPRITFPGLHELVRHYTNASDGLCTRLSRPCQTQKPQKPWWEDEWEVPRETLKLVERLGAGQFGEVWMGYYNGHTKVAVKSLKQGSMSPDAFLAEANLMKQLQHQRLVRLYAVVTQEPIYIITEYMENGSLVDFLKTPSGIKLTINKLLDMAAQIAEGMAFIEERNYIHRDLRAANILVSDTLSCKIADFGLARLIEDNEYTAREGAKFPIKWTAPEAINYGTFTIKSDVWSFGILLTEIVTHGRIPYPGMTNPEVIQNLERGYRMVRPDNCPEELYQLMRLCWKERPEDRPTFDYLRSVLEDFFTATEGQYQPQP
Source text: (§1) LOC14 was also submitted for testing in CEREP's Safety47 panel. CEREP is a CRO specializing in preclinical research, discovery and development of new pharmaceutical drugs.

VEGFR2 = target: T2, VEGFR2 (Homo sapiens, UniProt P35968); experiment: Safety47 panel kinase VEGFR2; type: biochemical; settings: Inhibitor mode; 3 μM
T2 construct: CEREP (CRO, Safety47 panel)
T2 sequence (P35968 20-1356): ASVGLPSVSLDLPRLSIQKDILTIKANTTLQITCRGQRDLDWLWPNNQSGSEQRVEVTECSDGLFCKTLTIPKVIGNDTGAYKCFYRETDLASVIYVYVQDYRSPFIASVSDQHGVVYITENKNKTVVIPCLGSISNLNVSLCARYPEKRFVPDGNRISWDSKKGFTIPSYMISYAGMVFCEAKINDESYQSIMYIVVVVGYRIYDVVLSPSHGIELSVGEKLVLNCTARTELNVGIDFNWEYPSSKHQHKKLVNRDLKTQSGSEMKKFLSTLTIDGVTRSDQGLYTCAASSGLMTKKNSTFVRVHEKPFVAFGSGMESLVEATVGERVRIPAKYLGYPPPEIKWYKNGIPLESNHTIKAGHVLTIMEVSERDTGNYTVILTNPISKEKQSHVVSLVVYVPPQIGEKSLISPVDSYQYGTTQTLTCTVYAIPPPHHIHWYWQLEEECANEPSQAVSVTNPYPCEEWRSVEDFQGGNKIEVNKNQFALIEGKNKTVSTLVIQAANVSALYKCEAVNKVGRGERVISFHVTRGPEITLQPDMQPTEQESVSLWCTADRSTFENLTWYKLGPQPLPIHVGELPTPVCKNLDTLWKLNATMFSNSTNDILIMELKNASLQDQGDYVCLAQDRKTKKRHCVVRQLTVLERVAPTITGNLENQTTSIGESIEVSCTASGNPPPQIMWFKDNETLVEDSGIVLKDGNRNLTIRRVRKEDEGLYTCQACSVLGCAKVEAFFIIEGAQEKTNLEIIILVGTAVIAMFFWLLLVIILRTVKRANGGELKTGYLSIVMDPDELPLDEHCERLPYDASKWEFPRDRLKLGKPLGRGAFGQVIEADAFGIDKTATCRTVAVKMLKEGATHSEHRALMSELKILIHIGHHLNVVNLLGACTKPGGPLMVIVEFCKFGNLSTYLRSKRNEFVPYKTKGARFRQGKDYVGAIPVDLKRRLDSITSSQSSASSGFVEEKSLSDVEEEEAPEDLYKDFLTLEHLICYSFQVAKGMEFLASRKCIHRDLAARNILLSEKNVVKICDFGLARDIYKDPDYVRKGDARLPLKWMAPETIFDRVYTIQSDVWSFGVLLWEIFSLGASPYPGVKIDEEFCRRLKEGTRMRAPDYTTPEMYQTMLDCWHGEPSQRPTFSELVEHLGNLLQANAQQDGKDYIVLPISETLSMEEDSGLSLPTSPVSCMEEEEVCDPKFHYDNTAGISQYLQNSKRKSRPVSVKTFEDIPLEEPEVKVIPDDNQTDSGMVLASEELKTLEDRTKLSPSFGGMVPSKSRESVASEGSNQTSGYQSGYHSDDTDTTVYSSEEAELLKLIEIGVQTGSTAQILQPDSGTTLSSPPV
Source text: as §1

Sequence of Adrenergic α2A (P08913 whole entry): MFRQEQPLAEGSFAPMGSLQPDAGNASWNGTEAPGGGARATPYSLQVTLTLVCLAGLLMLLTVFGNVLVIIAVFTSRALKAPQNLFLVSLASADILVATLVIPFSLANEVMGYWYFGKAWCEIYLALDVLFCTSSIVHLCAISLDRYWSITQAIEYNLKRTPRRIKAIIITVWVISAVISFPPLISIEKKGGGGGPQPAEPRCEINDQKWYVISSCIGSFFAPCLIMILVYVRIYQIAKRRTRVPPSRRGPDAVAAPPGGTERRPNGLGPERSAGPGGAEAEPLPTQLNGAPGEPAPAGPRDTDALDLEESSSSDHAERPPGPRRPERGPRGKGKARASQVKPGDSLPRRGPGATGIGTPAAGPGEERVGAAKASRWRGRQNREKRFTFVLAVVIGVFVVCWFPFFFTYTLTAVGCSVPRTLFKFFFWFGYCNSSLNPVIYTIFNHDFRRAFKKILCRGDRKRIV

Compound: O=C(C1CC1)N1CCN(Cn2sc3ccccc3c2=O)CC1 [LOC14]
- inhibition at 3 µM (Adrenergic α2A): 7%
- Average (LCK): 16.1
- Average (VEGFR2): 17.2
